Experimental findings from patent US4731363A, “Thromboxane synthase inhibitors as insulin lowering agents and antiobesity agents” (priority 1986, dated 1988) are described below.

Where “and” joins values, the source holds several entries; their conditions need not be identical. Equal entries are not always repeated. Structures can show the parent of a compound that is named as a salt.

One test concerns isolated perfused rat pancreas. Kind of test: Insulin secretion by isolated perfused rat pancreas. Further details: key: insulin AUC ratio: 1st glucose pulse / 2nd pulse with compound. As to conditions: 10 μM; 16.7 mM glucose; control 1.0 ± 0.04 (n = 5). The method, then:
Determination of Insulin-Secretory Activity in the Isolated Perfused Rat Pancreas
Pancreata were obtained from young adult female Charles River rats weighing from 200-300 g. The animals were anaesthesized with sodium pentobarbitol (45 mg/kg), injected intraperitoneally, and the pancreas with its intact vasculature was removed and connected to an extracorporeal perfusion apparatus.
The basic perfusion solution contained: 133 mM NaCl, 4.4 mM KCl, 2.5 mM MgSO4, 2.4 mM Ca gluconate, 1.5 mM KH2 PO4, 29.4 mM NaHCO3, 4% dextran and 0.2% bovine serum albumin and glucose as discussed below. The perfusion flow rate was kept constant at 4 ml/min. After a 15-20 min equilibration period, the experimental protocol was begun. The pancreatic effluent was collected in either one or four-minute fractions.
The perfusion was run in the following sequence:
30 min 16.7 mM glucose-internal control
30 min 16.7 mM glucose and test compound
5 min 20 mM arginine-to check pancreas viability
Test compounds were dissolved in 90% ethanol to a concentration of 25 mM and then diluted in the perfusion buffer to the desired concentration. The perfusion effluent was collected in one or four min fractions-the samples were checked immediately, aliquoted for submission to radioimmunoassay and stored at -20° C. until the time of assay. The radioimmunoassay of insulin was carried out by a back-titration method using a pure rat insulin standard.
To assess the inhibitory activity of the test compounds, an inhibition index was calculated. The inhibition index is derived by comparing the insulin secretion response from treated versus nontreated pancreas preparations. For each preparation, a ratio of insulin secretion was calculated from the area under the insulin secretion curve of the first pulse of 16.7 mM glucose divided by the area under the curve of the second pulse of 16.7 mM glucose containing compound.
Consider `Oc1ccc(-n2ccnc2)cc1` [4-(1H--imidazol-1-yl)phenol, 4-(1H-imidazol-1-yl)phenol], for which the “Insulin Secretion Inhibition Index” value amounted to 2.

The target of another test is TXA2 Synthase. Kind of test: TXA2 synthase IC50 as listed in Table I (enzyme source not stated). In kind it is biochemical.
Conditions: not given
The method, then:
(§1) Determination of Inhibition of Thromboxane Synthase Activity Isolation of Human Platelet Microsomes
(§2) Assay for Thromboxane Synthase
(§3) To a 12×75 mm tube containing [1-^14 C] PGH2 (2 μg, 0.01 μCi or 0.05 μCi) and inhibitor (1 mM final assay concentration, in 10 μl of ethanol) in 225 μl of phosphate buffer (0.1M, pH 7.5), was added to an aliquot of guinea pig lung microsomes (25 μl, containing 400 μg protein) or an aliquot of human platelet microsomes (25 μl, containing .congruent.[…] protein). The solution was incubated in a 22° water bath for 2 min.; ether (1 ml) and citric acid (25 μMoles) were added, and the tube plunged into an acetone-dry ice bath. The ether extract was transferred to a 1.0 ml Reacti-vial, and the volume reduced under nitrogen to .congruent.50 μl.
(§4) The extract was applied to an I.T.L.C., type SG, glass fiber sheet (Gelman Instrument Co., Ann Arbor, Mich.) and developed in isooctane; methyl ethyl ketone: acetic acid (100:19:1 or 100:9:1) (19). The sheets were air dried and scanned using a Berthold LB 2760 Radiochromatographic Scanner. In certain cases, based on the radiochromatographic profile obtained, the sheets were cut, the appropriate regions placed in scintillation vials, 10 ml of LSC cocktail (Yorktown Research, S. Hackensack, NJ) added, and the relative cpm determined.
On to `Oc1ccc(-n2ccnc2)cc1` [4-(1H--imidazol-1-yl)phenol, 4-(1H-imidazol-1-yl)phenol], for which inhibition was half-maximal at 1 µM (IC50).

Another test deals with T1, thromboxane synthase (Human Platelet Microsomes) (Homo sapiens, UniProt P24557).
T1 construct: Platelets were obtained from 320 ml of whole blood and resuspended in 5.0 ml of Krebs-Hensleit buffer; from tissue; host or cells: human platelets (microsomes, 110,000 g pellet)
T1 sequence (P24557 1-533): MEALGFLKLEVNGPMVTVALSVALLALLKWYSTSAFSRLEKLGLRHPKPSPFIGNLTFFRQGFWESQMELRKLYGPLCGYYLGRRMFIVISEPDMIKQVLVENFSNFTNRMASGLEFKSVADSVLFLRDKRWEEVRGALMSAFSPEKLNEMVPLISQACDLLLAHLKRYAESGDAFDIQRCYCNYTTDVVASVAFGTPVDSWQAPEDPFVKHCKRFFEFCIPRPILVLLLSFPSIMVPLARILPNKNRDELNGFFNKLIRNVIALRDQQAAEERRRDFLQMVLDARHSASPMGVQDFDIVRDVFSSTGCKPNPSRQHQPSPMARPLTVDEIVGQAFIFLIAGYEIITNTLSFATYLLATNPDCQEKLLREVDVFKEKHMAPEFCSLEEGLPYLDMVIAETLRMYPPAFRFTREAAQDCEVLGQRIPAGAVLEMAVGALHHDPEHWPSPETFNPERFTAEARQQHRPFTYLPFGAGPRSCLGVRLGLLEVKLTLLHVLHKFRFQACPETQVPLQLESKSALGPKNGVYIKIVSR
Kind of test: Thromboxane synthase inhibition, human platelet microsomes. The note with it: IC50, enzyme source H = Human Platelet Microsomes. Type of test: biochemical. The method, then:
In said assay procedure, microsomes from guinea pig lung or human platelets are added to an endoperoxide intermediate in prostaglandin biosynthesis and the inhibitor in phosphate buffer solution followed by incubation, extraction and determination of the extent of thromboxane synthase inhibition by TLC with radiochromatographic profile analysis.
as §1
Platelets were obtained from 320 ml of whole blood and resuspended in 5.0 ml of Krebs-Hensleit buffer (CA^+2 free). After three consecutive freeze-thawing cycles, homogenization and centrifugation at 12,000 g for 45 min., the 12,000 supernatant was recentrifuged at 110,000 g for 60 min. The resultant pellet was resuspended in phosphate buffer (0.5 ml, 0.1M, pH 7.5) and stored at -70° until use.
(§5) Low specific activity PGH2 (3.3 μCi/μmole) was obtained from Dr. W. E. M. Lands of the University of Michigan. PGH2 of higher specific activity (16.0 μCi/μmole) was purchased from Ran Biochemicals, Tel-Aviv, Israel.
(§6) The inhibitors tested were prepared as solutions (1-10 mg/ml) in 95% ethanol.
as §2, §3, §4
For `Clc1ccccc1C(c1ccccc1)(c1ccccc1)n1ccnc1` [1-[(2-chlorophenyl)diphenylmethyl]-1H--imidazole, reference compound], the IC50 (in general, the concentration that inhibits the measured activity by half) fell in the range of 10 to 100 µM.

`c1ccc(Cn2ccnc2)cc1` [1-(phenylmethyl)-1H--imidazole] yielded an IC50 of 10 to 100 µM.

Staying with this test, now noted: enzyme source H = Human Platelet Microsomes; read-out: IC50.
Turning to `Oc1ccc(-n2ccnc2)cc1` [4-(1H--imidazol-1-yl)phenol, 4-(1H-imidazol-1-yl)phenol], the IC50 was approximately 1 µM.

Regarding `CCOC(=O)C(=O)Cc1ccncn1` [Alpha-oxo-4-pyrimidinepropanoic acid ethyl ester], the IC50 is > 100 µM and < 1000 µM.

For the molecule `Oc1cccc(-n2ccnc2)c1` [3-(1H--imidazol-1-yl)phenol], the half-inhibitory concentration (IC50) lay within 1 to 10 µM.

With `O=C(NN=Cc1c(O)ccc2ccccc12)c1cccnc1` [[(2-hydroxy-1-naphthalenyl)methylene]hydrazide 3-pyridinecarboxylic acid], the half-inhibitory concentration (IC50) was approximately 100 µM.

As to `CC(C)(C(=O)c1cccnc1)c1cccnc1` [2-methyl-1,2-di-3-pyridyl-1-propanone tartrate [1:2], reference compound], the IC50 was > 100 µM and < 1000 µM.

As for `OC[C@H]1O[C@@H](n2ccnc2)[C@H](O)[C@@H](O)[C@@H]1O` [1-(beta-D-glucopyranosyl)-1H--imidazole], the IC50 lay in the range of 10 to 100 µM.

Consider `CC(=O)n1ccnc1` [1-acetyl-1H--imidazole], for which the IC50 was approximately 1000 µM.

Regarding `CCOc1ccc(-n2ccnc2)cc1` [1-(4-ethoxyphenyl)-1H--imidazole], the IC50 was approximately 10 µM.

Regarding `CCCCn1ccnc1` [1-butyl-1H--imidazole], the half-inhibitory concentration (IC50) was approximately 10 µM.

Consider `N[C@@H]1C(=O)N2C(C(=O)O)=C(CSc3ccncn3)CS[C@H]12` [[6R--(6α,7β)]-2-carboxy-8-oxo-3-[(4-pyrimidinylthio)-methyl]5-thia-1-azabicyclo-[4.2.0]oct-2-en-7-aminum hydroxide inner salt], for which the IC50 was > 100 µM and < 1000 µM.

As for `COc1ccc(-n2ccnc2)cc1` [1-(4-methoxyphenyl)-1H--imidazole], the 50% inhibitory concentration (IC50) was 10 to 100 µM.

Take `CC(C)Oc1ccc2oc3ccc(C(=O)O)cc3c(=O)c2c1` [7-(1-methylethoxy)-9-oxo-9H-xanthene-2-carboxylic acid]: the 50% inhibitory concentration (IC50) was more than 1000 µM.

A further test deals with T2, thromboxane synthase (Guinea Pig Lung Microsomes) (Cavia porcellus, UniProt H0UT36).
T2 construct: The lungs were removed, freed of trachea and the majority of blood removed by rinsing the lungs with buffer; from tissue; host or cells: lungs of male guinea pigs (microsomes, 110,000 g pellet)
T2 sequence (H0UT36 entry or part of it): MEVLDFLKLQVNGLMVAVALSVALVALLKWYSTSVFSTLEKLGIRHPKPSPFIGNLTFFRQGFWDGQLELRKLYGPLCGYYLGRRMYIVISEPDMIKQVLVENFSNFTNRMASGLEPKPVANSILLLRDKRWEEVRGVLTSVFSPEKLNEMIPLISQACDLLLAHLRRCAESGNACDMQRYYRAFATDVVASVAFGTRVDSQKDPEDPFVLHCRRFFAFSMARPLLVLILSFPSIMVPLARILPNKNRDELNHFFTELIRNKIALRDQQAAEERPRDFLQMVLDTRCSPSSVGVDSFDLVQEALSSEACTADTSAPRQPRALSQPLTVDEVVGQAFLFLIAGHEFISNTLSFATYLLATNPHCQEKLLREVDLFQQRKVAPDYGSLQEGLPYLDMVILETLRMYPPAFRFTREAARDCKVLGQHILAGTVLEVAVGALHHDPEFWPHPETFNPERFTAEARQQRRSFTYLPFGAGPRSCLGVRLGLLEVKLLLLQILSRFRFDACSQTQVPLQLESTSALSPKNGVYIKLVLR
Kind of test: biochemical. As to conditions: IC50, enzyme source G = Guinea Pig Lung Microsomes. The method, then:
In said assay procedure, microsomes from guinea pig lung or human platelets are added to an endoperoxide intermediate in prostaglandin biosynthesis and the inhibitor in phosphate buffer solution followed by incubation, extraction and determination of the extent of thromboxane synthase inhibition by TLC with radiochromatographic profile analysis. […]
Isolation of Guinea Pig Lung Microsomes
Four male guinea pigs (.congruent.500 g each) were sacrificed by spinal dislocation. The lungs were removed, freed of trachea and the majority of blood removed by rinsing the lungs with buffer (0.1M phosphate pH 7.5) via the pulmonary artery. The lung tissue (18.3 g total wet wt.), was then minced, suspended in three volumes of buffer and homogenized using, initially, a Brinkmann polytron homogenizer and, finally, a glass-teflon tissue grinder. The homogenate was centrifuged at 12,000 g for 1 hr. and the resultant supernatant recentrifuged at 110,000 g for 1 hr. The 110,000 g pellet was taken up in 10 ml of buffer, divided into 5×2 ml aliquots and stored at -70° until use.
as §5, §6, §2, §3, §4
Molecule `O=C1C(CC[S+]([O-])c2ccccc2)C(=O)N(c2ccccc2)N1c1ccccc1` (centres unmarked) [1,2-diphenyl-4-[2-[phenylsulfinyl]ethyl]-3,5-pyrazo-lidinedione, reference compound] came in with a concentration for half-maximal inhibition (IC50) of approximately 1000 µM.

`CCn1ccnc1` [1-ethyl-1H--imidazole] gave a half-maximal inhibitory concentration (IC50) of more than 1000 µM.

Regarding `O=[N+]([O-])c1ccc(-n2ccnc2)c([N+](=O)[O-])c1` [1-[2,4-dinitrophenyl]1H--imidazole], the IC50 is > 100 µM and < 1000 µM.

`Nc1cncc(C(=O)O)c1` [5-amino-3-pyridinecarboxylic acid] gave an IC50 of more than 1000 µM.

The test is the same for the next values; noted with them: enzyme source G = Guinea Pig Lung Microsomes; read-out: IC50.
As to `O=[N+]([O-])c1c[nH]cn1` [1H-- 4-nitroimidazole], the IC50 is more than 1000 µM.

In the case of `COC(=O)C=Cc1c[nH]cn1` [3-(1H--imidazole-4-yl)-2-propenoic acid methyl ester], the 50% inhibitory concentration (IC50) was > 100 µM and < 1000 µM.

In the case of `Cc1ccc2c(-c3ccccc3)nc(=O)n(C(C)C)c2c1` [7-methyl-1-(1-methylethyl)-4-phenyl-2(1H)-quinazolinone, reference compound], the IC50 was more than 1000 µM.

On to `COc1ccc2c(c1)c(CC(=O)O)c(C)n2C(=O)c1ccc(Cl)cc1` [1-(4-chlorobenzoyl)-5-methoxy-2-methyl-1H--indole-3-acetic acid, reference compound], for which the half-inhibitory concentration (IC50) is > 100 µM and < 1000 µM.

`Cn1ccnc1` [1-methyl-1H--imidazole]: the half-inhibitory concentration (IC50) was more than 1000 µM.

Consider `c1ccc(-c2ccncn2)cc1` [4-phenylpyrimidine], for which the concentration for half-maximal inhibition (IC50) was approximately 100 µM.

On to `O=[N+]([O-])c1ccc(-n2ccnc2)cc1` [1-(4-nitrophenyl)-1H--imidazole], for which the IC50 was > 100 µM and < 1000 µM.

`CC(C)Oc1ccc2oc3ccc(C(=O)O)cc3c(=O)c2c1` [7-(1-methylethoxy)-9-oxo-9H-xanthene-2-carboxylic acid]: the IC50 was more than 1000 µM.

As to `O=C1c2ccccc2S(=O)(=O)c2cc(-c3nnn[nH]3)ccc21` [3-(1H-tetrazol-5-yl)-9H-thioxathen-9-one s.s dioxide, reference compound], the IC50 is > 100 µM and < 1000 µM.
